According to PubChem BioAssay (NCI):
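A five-concentration, 48-hour dose response in 96-well plates underlies each endpoint, interpolated linearly between surrounding concentrations. Here, GI50 denotes the concentration required for 50% inhibition of growth. TGI: total growth inhibition.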

Experiments:
Test in all cases: inhibition of tumour cell growth, NCI panel, 48 h
SK-MEL-5 melanoma = system: SK-MEL-5 melanoma
UACC-62 melanoma = system: UACC-62 melanoma
SK-OV-3 ovarian = system: SK-OV-3 ovarian
SF-295 CNS = system: SF-295 CNS
HS 578T breast = system: HS 578T breast
COLO 205 colon = system: COLO 205 colon
SK-MEL-2 melanoma = system: SK-MEL-2 melanoma
SW-620 colon = system: SW-620 colon
RXF 393 renal = system: RXF 393 renal
SNB-75 CNS = system: SNB-75 CNS

Structure (SMILES) | GI50 (SK-MEL-5 melanoma) | TGI (SK-MEL-5 melanoma) | GI50 (UACC-62 melanoma) | TGI (UACC-62 melanoma) | GI50 (SK-OV-3 ovarian) | TGI (SK-OV-3 ovarian) | GI50 (SF-295 CNS) | TGI (SF-295 CNS) | GI50 (HS 578T breast) | TGI (HS 578T breast) | GI50 (COLO 205 colon) | TGI (COLO 205 colon) | GI50 (SK-MEL-2 melanoma) | TGI (SK-MEL-2 melanoma) | GI50 (SW-620 colon) | TGI (SW-620 colon) | GI50 (RXF 393 renal) | TGI (RXF 393 renal) | GI50 (SNB-75 CNS) | TGI (SNB-75 CNS)
Cc1ccc(-c2nc([P+](c3ccccc3)(c3ccccc3)c3ccccc3)c(Nc3ccccc3)o2)cc1 | 0.406 µM | 1.48 µM | 0.63 µM | 1.93 µM | 1.44 µM | 3.08 µM | 1.14 µM | 2.41 µM | 1.27 µM | 3.31 µM | 0.995 µM | 2.78 µM | 0.808 µM | 2.42 µM | 0.446 µM | 1.66 µM | 0.926 µM | 2.34 µM | 1.23 µM | 2.54 µM
C[C@]12CCNC(=O)C=C1CC[C@@H]1C2CC[C@@]2(C)C1CC[C@@H]2OC(=O)COc1ccc(N(CCCl)CCCl)cc1 (some centres not stated) | – | 24.6 µM | – | 6.41 µM | – | 21.7 µM | – | 30.6 µM | – | 98.1 µM | – | 23.9 µM | – | 44.4 µM | – | 16.5 µM | – | 18 µM | – | 47.2 µM
CSCCCNC(=O)c1csc(-c2csc(CCNC(=O)CNC(=O)CNC(=O)OC(C)(C)C)n2)n1 | – | > 100 µM | – | > 100 µM | – | > 100 µM | – | > 100 µM | – | > 100 µM | – | > 100 µM | – | > 100 µM | – | > 100 µM | – | > 100 µM | – | > 100 µM
Cc1cc(Nc2cc(N3CCN(C)CC3)nc(Sc3ccc(NC(=O)C4CC4)cc3)n2)n[nH]1 | 3.19 µM | > 10 µM | 1.53 µM | > 10 µM | > 10 µM | > 10 µM | 1.28 µM | > 10 µM | 3.46 µM | > 10 µM | 0.0456 µM | 7.32 µM | 5.51 µM | > 10 µM | 1.08 µM | > 10 µM | 2.17 µM | > 10 µM | 2.71 µM | > 10 µM
Nc1nc(N)c2cc(Sc3cccc(C(F)(F)F)c3)ccc2n1 | – | 5.86 µM | – | 5.49 µM | – | 21 µM | – | 8.97 µM | – | 10.2 µM | – | 3.02 µM | – | 5.25 µM | 0.267 µM | 1.57 µM | 1.01 µM | 2.53 µM | – | 15.9 µM
COc1cc(/C=C/c2cc(/C=C/c3ccc(O)c(OC)c3)n(C(=O)Nc3ccc(Cl)cc3)n2)ccc1O | 0.306 µM | 1.25 µM | 0.551 µM | 2.24 µM | 0.426 µM | 1.8 µM | 1.5 µM | 7.86 µM | 0.732 µM | 5.63 µM | 1.95 µM | 3.43 µM | 0.403 µM | 2.01 µM | 0.49 µM | 2.73 µM | 0.261 µM | 0.789 µM | 0.444 µM | 2.25 µM
Cc1cccc(NC(=O)/C=C/c2ccc([N+](=O)[O-])cc2)c1 | – | > 51 µM | – | > 58.5 µM | – | > 61.5 µM | – | > 58 µM | – | > 87 µM | – | > 56.3 µM | – | 49.4 µM | – | > 60.2 µM | – | > 52.7 µM | – | > 60.4 µM
N#Cc1c(N)nc(NCc2ccccc2)c(C#N)c1-c1ccc(Cl)cc1Cl | > 100 µM | > 100 µM | > 100 µM | > 100 µM | > 100 µM | > 100 µM | > 63.9 µM | > 100 µM | 85.7 µM | > 100 µM | > 100 µM | > 100 µM | > 77.2 µM | > 100 µM | 74.4 µM | > 100 µM | 52.4 µM | > 100 µM | 22.9 µM | 99 µM
O=S(=O)(Nc1ccc(F)c(Cl)c1)c1ccc(-c2cnc(C3CC3)o2)cc1 | 0.316 µM | 1.67 µM | 0.183 µM | 5.51 µM | 0.728 µM | 14.4 µM | 0.199 µM | 1.49 µM | 0.28 µM | 4.53 µM | 0.375 µM | 4.69 µM | 0.657 µM | 14 µM | 0.159 µM | 13.9 µM | 0.196 µM | 1.28 µM | 0.137 µM | 0.547 µM
Cc1cnc(Nc2ccc(N3CCN(C)CC3)cc2)nc1Nc1ccc(Cl)c(NS(=O)(=O)C(C)(C)C)c1 | 0.312 µM | 1.51 µM | 0.0808 µM | 1.68 µM | 0.0972 µM | 0.808 µM | 0.524 µM | 2.95 µM | 0.128 µM | 1.4 µM | 0.094 µM | 0.543 µM | 0.31 µM | 3.76 µM | 0.232 µM | 5.45 µM | 0.136 µM | 0.959 µM | < 0.0256 µM | 0.828 µM
CC1=C[C@H]2C[C@H](C)[C@H]3CC[C@H](C)[C@]4(C1)C(=O)C(O)=C(C)C(=O)[C@@]324 | 13.5 µM | 30.8 µM | 22 µM | 80.2 µM | 45.1 µM | > 100 µM | > 100 µM | > 100 µM | 24.7 µM | 67.5 µM | 19 µM | 48.9 µM | 32.3 µM | > 100 µM | 31.5 µM | > 100 µM | 60.9 µM | > 100 µM | 46.7 µM | > 100 µM
O=C(Nc1cc(Oc2cc(F)c(NC(=O)C3(C(=O)Nc4ccc(F)cc4)CC3)cc2F)ccn1)C1CC1 | 1.52 µM | 3.47 µM | 1.19 µM | 5.6 µM | 4.04 µM | > 29.9 µM | 2.21 µM | 9.91 µM | 2.5 µM | 6.82 µM | 1.4 µM | 3.27 µM | 1.35 µM | 3.64 µM | 3.12 µM | > 100 µM | 2.49 µM | 4.91 µM | 1.49 µM | 3.16 µM
CNS(=O)(=O)OCC1OC(n2cnc3c(N)ncnc32)C(O)C1O (configuration not stated) | > 100 µM | > 100 µM | > 100 µM | > 100 µM | > 100 µM | > 100 µM | > 100 µM | > 100 µM | > 100 µM | > 100 µM | > 100 µM | > 100 µM | > 100 µM | > 100 µM | > 100 µM | > 100 µM | > 100 µM | > 100 µM | > 100 µM | > 100 µM
